# Tests used:
# [1] = test system: Ovarian-39 (OV39) ovarian cancer PDX; experiment: In vivo efficacy, OV39 ovarian cancer PDX; design: species or system NOD/SCID mice (human tumor PDX); settings: for mean tumor volume: 1.5 mg/kg
# [2] = test system: Ovarian-63 (OV63) ovarian cancer PDX; experiment: In vivo efficacy, OV63 ovarian cancer PDX; design: species or system NOD/SCID mice (human tumor PDX); mean tumor volume: unit not given beside the values; settings: for mean tumor volume: 5.0 mg/kg
# [3] = test system: Ovarian-44 (OV44) ovarian cancer PDX; experiment: In vivo efficacy, OV44 ovarian cancer PDX; design: species or system NOD/SCID mice (human tumor PDX); settings: 5 mpk, once a week for 2 cycles
# BR17 = experiment: In vivo efficacy, BR17 HER2+ breast tumor model; design: species or system mice; settings: 1.5 mpk
# Text: (§1) In breast and ovarian models, tumor regression was defined as a reduction in mean tumor volume after dosing. TGI=Tumor Growth Inhibition. % TGI=[1−(Mean Tumor Volume of Treated)/(Mean Tumor Volume of Vehicle)]. […] ADC dose levels are listed in mg/kg according to antibody content.
# [4] = test system: Breast-5 (BR5) triple-negative breast cancer (TNBC) PDX; experiment: In vivo efficacy, BR5 TNBC PDX; design: species or system NOD/SCID mice (human tumor PDX); settings: for tumor volume ± SEM: 1.5 mg/kg
# [5] = test system: Breast-22 (BR22) TNBC PDX; experiment: In vivo efficacy, BR22 TNBC PDX; settings: for tumor volume ± SEM: 1.5 mg/kg
# Text: as §1
# BR64 = experiment: In vivo efficacy, BR64 TNBC Claudin-low tumor model; design: species or system mice; settings: 1.5 mpk
# Text: as §1
# [6] = test system: Breast-13 (BR13) TNBC PDX; experiment: In vivo efficacy, BR13 TNBC PDX; design: species or system NOD/SCID mice (human tumor PDX); settings: for tumor volume ± SEM: 1.5 mg/kg
# BR25 = experiment: In vivo efficacy, BR25 TNBC Claudin-low tumor model; design: species or system mice; settings: 1.5 mpk
# Text: as §1
# [7] = test system: Breast-56 (BR56) TNBC PDX; experiment: In vivo efficacy, BR56 TNBC PDX; design: species or system NOD/SCID mice (human tumor PDX); settings: for tumor volume ± SEM: 1.5 mg/kg
# [8] = test system: Breast-31 (BR31) TNBC PDX; experiment: In vivo efficacy, BR31 TNBC PDX; design: species or system NOD/SCID mice (human tumor PDX); settings: for mean tumor volume: 1.5 mg/kg
smiles,measurement,setting,value
"N.N.[Cl][Pt][Cl] [Cisplatin, cisplatin, reference compound]","Regression (TTP, Days)","[1]; 5 mpk, once a week for 2 cycles, OV39",Regression (28) Days
same,mean tumor volume,[2]; Day 0,153 ± 22
same,mean tumor volume,[2]; Day 5,146 ± 27
same,mean tumor volume,[2]; Day 18,198 ± 29
same,mean tumor volume,[2]; Day 25,205 ± 36
same,mean tumor volume,[2]; Day 32,238 ± 49
same,mean tumor volume,[2]; Day 39,221 ± 40
same,mean tumor volume,[2]; Day 47,243 ± 42
same,mean tumor volume,[2]; Day 53,265 ± 63
same,mean tumor volume,[2]; Day 60,296 ± 80
same,mean tumor volume,[2]; Day 67,265 ± 82
same,% TGI,"[2]; 5 mpk, once a week for 2 cycles, OV63 PDX",35% TGI
same,"Regression (TTP, Days)",[3],Regression (60) Days
"COc1cccc2c1C(=O)c1c(O)c3c(c(O)c1C2=O)C[C@@](O)(C(=O)CO)C[C@@H]3O[C@H]1C[C@H](N)[C@H](O)[C@H](C)O1 [Doxorubicin, doxorubicin, reference compound]",% TGI,BR17,66% TGI
same,tumor volume ± SEM,[4]; Day 0,166 ± 18 mm^3
same,tumor volume ± SEM,[4]; Day 7,494 ± 70 mm^3
same,tumor volume ± SEM,[4]; Day 11,752 ± 92 mm^3
same,tumor volume ± SEM,[4]; Day 18,966 ± 32 mm^3
same,% TGI,"[4]; 1.5 mpk, BR5 PDX",44% TGI
same,impact on tumor growth,[4]; in vivo,neither the control ADC nor doxorubicin standard-of-care (SOC) impacted tumor growth
same,mean tumor volume,[1]; Day 0,186 ± 33
same,mean tumor volume,[1]; Day 7,282 ± 50
same,mean tumor volume,[1]; Day 14,171 ± 32
same,mean tumor volume,[1]; Day 17,122 ± 24
same,mean tumor volume,[1]; Day 24,83 ± 11
same,mean tumor volume,[1]; Day 28,118 ± 17
same,mean tumor volume,[1]; Day 35,361 ± 40
same,mean tumor volume,[1]; Day 42,712 ± 97
same,mean tumor volume,[1]; Day 49,966 ± 85
same,tumor volume ± SEM,[5]; Day 0,244 ± 17 mm^3
same,tumor volume ± SEM,[5]; Day 7,416 ± 61 mm^3
same,tumor volume ± SEM,[5]; Day 14,553 ± 39 mm^3
same,tumor volume ± SEM,[5]; Day 21,729 ± 91 mm^3
same,% TGI,"[5]; 1.5 mpk, BR22 PDX",27% TGI
same,impact on tumor growth,[5]; in vivo,Neither the control ADC nor doxorubicin SOC impacted tumor growth
same,"Regression (TTP, Days) or % TGI",BR64,No activity
same,tumor volume ± SEM,[6]; Day 0,167 ± 13 mm^3
same,tumor volume ± SEM,[6]; Day 7,178 ± 20 mm^3
same,tumor volume ± SEM,[6]; Day 22,322 ± 38 mm^3
same,tumor volume ± SEM,[6]; Day 14,227 ± 25 mm^3
same,tumor volume ± SEM,[6]; Day 28,326 ± 34 mm^3
same,% TGI,"[6]; 1.5 mpk, BR13",16% TGI
same,impact on tumor growth,[6]; in vivo,neither the control ADC nor doxorubicin SOC impacted tumor growth
same,"Regression (TTP, Days) or % TGI",BR25,No activity
same,tumor volume ± SEM,[7]; Day 0,141 ± 13 mm^3
same,tumor volume ± SEM,[7]; Day 4,182 ± 11 mm^3
same,tumor volume ± SEM,[7]; Day 11,267 ± 31 mm^3
same,tumor volume ± SEM,[7]; Day 18,318 ± 32 mm^3
same,tumor volume ± SEM,[7]; Day 25,374 ± 50 mm^3
same,% TGI,"[7]; 1.5 mpk, BR56 PDX",49% TGI
same,impact on tumor growth,[7]; in vivo,neither the control ADC nor doxorubicin SOC impacted tumor growth
same,mean tumor volume,[8]; Day 0,160 ± 11
same,mean tumor volume,[8]; Day 7,304 ± 20
same,mean tumor volume,[8]; Day 14,458 ± 24
same,mean tumor volume,[8]; Day 21,592 ± 56
same,mean tumor volume,[8]; Day 28,759 ± 111
same,% TGI,"[8]; 1.5 mpk, BR31 PDX",30% TGI
same,impact on tumor growth,[8]; in vivo,neither the control ADC nor doxorubicin SOC impacted tumor growth
